We go through one molecule from ChEMBL document CHEMBL3045784, “Effects of oleic acid on the tissue factor activity, blood lipids, antioxidant and oxidant parameters of streptozotocin induced diabetic rats fed a high-cholesterol diet” (Med Chem Res, 2010).

The test system of data set [1] is Rattus norvegicus. In words: Antihyperlipidemic activity in Rattus norvegicus Wistar (rat) diabetic-hyperlipidemic model assessed as serum HDL-cholesterol level at 10.91% administered through feeding measured after 12 weeks ( Rvb = 22.80 +/- 2.41 mg/dl). It is filed as functional.
Data set [2] concerns Rattus norvegicus. In words: Anticoagulant activity in Rattus norvegicus Wistar (rat) diabetic-hyperlipidemic model assessed as prothombin time at 10.91% administered through feeding measured after 12 weeks (reference value: 14.69 +/- 0.8 secs). It is filed as functional.
For data set [3], the system named is Rattus norvegicus. The experiment in a line: Anticoagulant activity in Rattus norvegicus Wistar (rat) diabetic-hyperlipidemic model assessed as decrease in TFa activity in lung measuring clotting time at 10.91% administered through feeding measured after 12 weeks (reference value: 19.25 +/- 3.20 secs). The class given is functional.
The subject of data set [4] is Rattus norvegicus. In words: Increase in blood GSH level in Rattus norvegicus Wistar (rat) diabetic-hyperlipidemic model at 10.91% administered through feeding measured after 12 weeks (reference value: 20.31 +/- 0.93 %mg). The class given is functional.
In data set [5] the test system is Rattus norvegicus. The experiment in a line: Anticoagulant activity in Rattus norvegicus Wistar (rat) diabetic-hyperlipidemic model assessed as decrease in TFa activity in kidney measuring clotting time at 10.91% administered through feeding measured after 12 weeks (reference value: 52.38 +/- 2 secs). It is filed as functional.
In data set [6] the test system is Rattus norvegicus. In words: Anticoagulant activity in Rattus norvegicus Wistar (rat) diabetic-hyperlipidemic model assessed as activated partial thromboplastin time at 10.91% administered through feeding measured after 12 weeks (reference value: 17.13 +/- 1.73 secs). The class given is functional.
The test system of data set [7] is Rattus norvegicus. The experiment in a line: Antihyperlipidemic activity in Rattus norvegicus Wistar (rat) diabetic-hyperlipidemic model assessed as serum triglyceride level at 10.91% administered through feeding measured after 12 weeks ( Rvb = 86.45 +/- 5.7 mg/dl). The class given is functional.
The test system of data set [8] is Rattus norvegicus. The experiment in a line: Antihyperlipidemic activity in Rattus norvegicus Wistar (rat) diabetic-hyperlipidemic model assessed as serum total lipid level at 10.91% administered through feeding measured after 12 weeks ( Rvb = 922.25 +/- 41.78 mg/dl). It is filed as functional.
Data set [9] relates to Rattus norvegicus. The experiment in a line: Antihyperlipidemic activity in Rattus norvegicus Wistar (rat) diabetic-hyperlipidemic model assessed as serum LDL-cholesterol level at 10.91% administered through feeding measured after 12 weeks ( Rvb = 74.25 +/- 9.36 mg/dl). The class given is functional.
Data set [10] deals with Rattus norvegicus. In words: Toxicity in Rattus norvegicus Wistar (rat) diabetic-hyperlipidemic model assessed as change in body weight at 10.91% administered through feeding measured for 12 weeks ( Rvb = 290 +/-76 g). It is filed as organism-based. The settings on record: in vivo, po, 2016 h.
Data set [11] relates to Rattus norvegicus. The experiment in a line: Antidiabetic activity in Rattus norvegicus Wistar (rat) diabetic-hyperlipidemic model assessed as serum glucose level at 10.91% administered through feeding measured after 12 weeks ( Rvb = 194.4 +/- 23.99 mg/dl). It is filed as functional.
In data set [12] the test system is Rattus norvegicus. In words: Anticoagulant activity in Rattus norvegicus Wistar (rat) diabetic-hyperlipidemic model assessed as decrease in TFa activity in aorta measuring clotting time at 10.91% administered through feeding measured after 12 weeks (reference value: 36.25 +/- 1.39 secs). It is filed as functional.
Data set [13] relates to Rattus norvegicus. The experiment in a line: Antioxidant activity in Rattus norvegicus Wistar (rat) diabetic-hyperlipidemic model assessed as serum malondialdehyde level at 10.91% administered through feeding measured after 12 weeks by TBARS assay (reference value: 5.78 +/- 0.08 nmol/ml). It is filed as functional.
For data set [14], the system named is Rattus norvegicus. In words: Anticoagulant activity in Rattus norvegicus Wistar (rat) diabetic-hyperlipidemic model assessed as fibrinogen level at 10.91% administered through feeding measured after 12 weeks (reference value: 2.13 +/- 0.23 g/l). It is filed as functional.
For data set [15], the system named is Rattus norvegicus. In words: Anticoagulant activity in Rattus norvegicus Wistar (rat) diabetic-hyperlipidemic model assessed as decrease in TFa activity in spleen measuring clotting time at 10.91% administered through feeding measured after 12 weeks (reference value: 69.63 +/- 1.77 secs). It is filed as functional.
The test system of data set [16] is Rattus norvegicus. In words: Anticoagulant activity in Rattus norvegicus Wistar (rat) diabetic-hyperlipidemic model assessed as decrease in TFa activity in pancreas measuring clotting time at 10.91% administered through feeding measured after 12 weeks (reference value: 27.25 +/- 2.82 secs). The class given is functional.
Data set [17] has as its system Rattus norvegicus. The experiment in a line: Anticoagulant activity in Rattus norvegicus Wistar (rat) diabetic-hyperlipidemic model assessed as decrease in TFa activity in heart measuring clotting time at 10.91% administered through feeding measured after 12 weeks (reference value: 27.13 +/- 3.72 secs). It is filed as functional.
In data set [18] the test system is Rattus norvegicus. The experiment in a line: Anticoagulant activity in Rattus norvegicus Wistar (rat) diabetic-hyperlipidemic model assessed as decrease in TFa activity in liver measuring clotting time at 10.91% administered through feeding measured after 12 weeks (reference value: 74.38 +/- 4.60 secs). The class given is functional.
For data set [19], the system named is Rattus norvegicus. In words: Antihyperlipidemic activity in Rattus norvegicus Wistar (rat) diabetic-hyperlipidemic model assessed as serum total cholesterol level at 10.91% administered through feeding measured after 12 weeks ( Rvb = 309 +/- 35.88 mg/dl). It is filed as functional.
Data set [20] deals with Rattus norvegicus. The experiment in a line: Anticoagulant activity in Rattus norvegicus Wistar (rat) diabetic-hyperlipidemic model assessed as decrease in TFa activity in brain measuring clotting time at 10.91% administered through feeding measured after 12 weeks (reference value: 50.5 +/- 1.77 secs). The class given is functional.

As for `CCCCCCCC/C=C\CCCCCCCC(=O)O` [OLEIC ACID], the Activity in the data set with Rattus norvegicus [1] was 25.53 mg/dL; in the data set with Rattus norvegicus [4], 29.96 %mg; in the data set on Rattus norvegicus [7] it was 71.68 mg/dL; in the data set on Rattus norvegicus [8], 773.75 mg/dL; in the data set on Rattus norvegicus [9], 74.63 mg/dL; in the data set with Rattus norvegicus [10], 243 g. Moreover, the Activity with Rattus norvegicus [11] is 190.63 mg/dL; in the data set with Rattus norvegicus [13], 5.81 nmol/mL; with Rattus norvegicus [14], 1.97 g/L; in the data set on Rattus norvegicus [19], 351.3 mg/dL. Moreover, in the data set on Rattus norvegicus [2], the PT was found to be 15.1 s. The Time turned out to be 20.38 s in the data set on Rattus norvegicus [3]; 65.13 s in the data set with Rattus norvegicus [5]; 33.5 s in the data set on Rattus norvegicus [12]; 62.25 s in the data set on Rattus norvegicus [15]; 28.5 s in the data set with Rattus norvegicus [16]; 28.25 s in the data set on Rattus norvegicus [17]. Also, the figures for the Time with Rattus norvegicus [18] and with Rattus norvegicus [20] were 77.25 s and 60.13 s, respectively. In addition, the APTT in the data set on Rattus norvegicus [6] was found to be 17.88 s.
